Results taken from article PMC7026418, “The kinase polypharmacology landscape of clinical PARP inhibitors” (Scientific Reports, 2020).
Where two headings read alike, the source gives them in different places.

Columns and labels:
Assay in all cases: biochemical
Set-up in all cases: DiscoveRx KINOMEscan active site-directed competition binding; percent of control kinase bound to immobilised ligand
EPHB1 = molecular target: T1, EPHB1 (Homo sapiens, UniProt P54762)
T1 sequence (P54762 1-984): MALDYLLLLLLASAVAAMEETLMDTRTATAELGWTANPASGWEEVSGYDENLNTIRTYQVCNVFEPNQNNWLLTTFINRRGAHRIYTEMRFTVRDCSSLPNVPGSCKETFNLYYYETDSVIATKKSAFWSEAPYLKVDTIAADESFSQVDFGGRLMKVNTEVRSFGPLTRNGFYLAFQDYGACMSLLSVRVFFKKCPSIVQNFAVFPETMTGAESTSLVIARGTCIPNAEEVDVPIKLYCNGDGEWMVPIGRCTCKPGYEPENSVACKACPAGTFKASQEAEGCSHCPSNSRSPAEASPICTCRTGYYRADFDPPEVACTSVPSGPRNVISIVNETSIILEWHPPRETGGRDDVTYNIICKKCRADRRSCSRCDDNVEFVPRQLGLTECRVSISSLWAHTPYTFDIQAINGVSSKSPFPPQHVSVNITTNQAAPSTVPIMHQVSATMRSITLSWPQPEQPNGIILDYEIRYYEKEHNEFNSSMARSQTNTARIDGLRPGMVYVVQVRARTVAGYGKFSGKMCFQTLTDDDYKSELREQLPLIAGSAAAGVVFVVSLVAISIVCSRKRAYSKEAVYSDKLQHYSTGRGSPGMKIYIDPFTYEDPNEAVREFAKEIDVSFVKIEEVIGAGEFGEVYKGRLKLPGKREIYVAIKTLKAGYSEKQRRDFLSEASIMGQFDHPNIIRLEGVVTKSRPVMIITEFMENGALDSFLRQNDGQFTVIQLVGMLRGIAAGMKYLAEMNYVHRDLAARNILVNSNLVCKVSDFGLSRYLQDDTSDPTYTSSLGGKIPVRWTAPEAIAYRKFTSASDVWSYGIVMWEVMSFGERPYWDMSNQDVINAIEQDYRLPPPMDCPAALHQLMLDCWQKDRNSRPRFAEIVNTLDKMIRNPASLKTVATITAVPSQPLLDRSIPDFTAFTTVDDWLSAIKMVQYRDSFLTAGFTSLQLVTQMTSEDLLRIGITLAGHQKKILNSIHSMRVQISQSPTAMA

ERK2 = molecular target: T2, ERK2 (Homo sapiens, UniProt P28482)
T2 construct: gene MAPK1
T2 sequence (P28482 whole entry): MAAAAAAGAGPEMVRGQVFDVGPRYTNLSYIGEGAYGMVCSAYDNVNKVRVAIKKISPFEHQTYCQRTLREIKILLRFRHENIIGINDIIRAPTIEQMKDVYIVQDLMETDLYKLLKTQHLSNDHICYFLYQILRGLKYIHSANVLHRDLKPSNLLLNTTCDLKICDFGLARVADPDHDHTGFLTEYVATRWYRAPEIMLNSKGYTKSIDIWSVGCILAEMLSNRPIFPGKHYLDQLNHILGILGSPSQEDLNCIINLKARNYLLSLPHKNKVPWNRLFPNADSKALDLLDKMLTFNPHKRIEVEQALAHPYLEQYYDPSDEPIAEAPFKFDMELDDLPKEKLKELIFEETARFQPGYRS

ERK8 = molecular target: T3, ERK8 (Homo sapiens, UniProt Q8TD08)
T3 construct: gene MAPK15
T3 sequence (Q8TD08 1-544): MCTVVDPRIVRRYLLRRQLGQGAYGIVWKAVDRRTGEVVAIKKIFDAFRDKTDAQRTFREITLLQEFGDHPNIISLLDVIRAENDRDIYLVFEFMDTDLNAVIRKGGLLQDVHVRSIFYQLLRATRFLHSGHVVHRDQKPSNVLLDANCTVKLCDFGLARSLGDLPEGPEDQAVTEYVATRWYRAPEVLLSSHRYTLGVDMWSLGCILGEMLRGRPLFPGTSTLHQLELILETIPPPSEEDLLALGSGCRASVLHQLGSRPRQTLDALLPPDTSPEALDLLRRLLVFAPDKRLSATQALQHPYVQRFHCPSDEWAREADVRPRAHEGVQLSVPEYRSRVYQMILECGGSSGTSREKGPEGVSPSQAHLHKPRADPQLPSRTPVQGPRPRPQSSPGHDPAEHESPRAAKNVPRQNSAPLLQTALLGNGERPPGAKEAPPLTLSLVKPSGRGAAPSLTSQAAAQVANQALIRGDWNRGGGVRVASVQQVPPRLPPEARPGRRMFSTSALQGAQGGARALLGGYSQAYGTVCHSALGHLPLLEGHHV

PFTK1 = molecular target: T4, PFTK1 (Homo sapiens, UniProt O94921)
T4 construct: gene CDK14
T4 sequence (O94921 whole entry): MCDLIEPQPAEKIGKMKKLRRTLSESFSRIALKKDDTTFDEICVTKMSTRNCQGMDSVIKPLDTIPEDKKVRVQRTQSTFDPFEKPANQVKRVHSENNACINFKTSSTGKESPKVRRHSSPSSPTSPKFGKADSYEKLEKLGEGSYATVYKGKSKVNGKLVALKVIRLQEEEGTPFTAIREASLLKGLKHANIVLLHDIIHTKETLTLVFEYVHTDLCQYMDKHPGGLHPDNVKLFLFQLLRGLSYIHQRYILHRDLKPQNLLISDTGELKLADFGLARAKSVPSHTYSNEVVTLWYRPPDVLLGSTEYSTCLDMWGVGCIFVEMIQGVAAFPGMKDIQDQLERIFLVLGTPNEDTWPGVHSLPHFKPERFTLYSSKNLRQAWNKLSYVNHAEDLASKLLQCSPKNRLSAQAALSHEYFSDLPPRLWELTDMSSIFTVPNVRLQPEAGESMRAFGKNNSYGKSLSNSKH

PRKD1 = molecular target: T5, PRKD1 (Homo sapiens, UniProt Q15139)
T5 sequence (Q15139 1-912): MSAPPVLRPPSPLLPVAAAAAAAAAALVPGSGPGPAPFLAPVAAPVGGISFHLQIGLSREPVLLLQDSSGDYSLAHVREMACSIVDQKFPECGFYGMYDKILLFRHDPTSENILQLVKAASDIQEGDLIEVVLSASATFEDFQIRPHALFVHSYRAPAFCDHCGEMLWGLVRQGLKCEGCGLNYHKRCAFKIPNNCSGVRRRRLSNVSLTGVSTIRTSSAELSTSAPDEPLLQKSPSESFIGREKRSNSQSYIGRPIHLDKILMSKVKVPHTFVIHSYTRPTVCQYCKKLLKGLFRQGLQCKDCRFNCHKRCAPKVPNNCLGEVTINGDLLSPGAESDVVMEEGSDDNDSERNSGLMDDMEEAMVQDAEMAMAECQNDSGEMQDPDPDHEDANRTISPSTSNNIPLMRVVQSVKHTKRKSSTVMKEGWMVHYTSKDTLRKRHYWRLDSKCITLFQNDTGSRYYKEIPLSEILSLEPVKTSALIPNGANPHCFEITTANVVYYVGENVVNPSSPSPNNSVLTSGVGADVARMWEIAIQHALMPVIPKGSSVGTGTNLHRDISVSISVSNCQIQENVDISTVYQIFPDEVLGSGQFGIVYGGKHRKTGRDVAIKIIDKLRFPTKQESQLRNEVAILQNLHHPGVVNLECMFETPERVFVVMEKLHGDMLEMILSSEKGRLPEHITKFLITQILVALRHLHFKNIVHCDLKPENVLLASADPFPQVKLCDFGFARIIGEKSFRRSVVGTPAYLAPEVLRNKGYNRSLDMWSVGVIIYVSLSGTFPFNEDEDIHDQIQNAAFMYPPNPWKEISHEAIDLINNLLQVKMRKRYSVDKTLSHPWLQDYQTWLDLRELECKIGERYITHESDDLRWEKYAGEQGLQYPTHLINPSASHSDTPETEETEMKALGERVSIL

[1] = read-out: Talazoparib (BMN 673) / %Ctrl @ 10000nM
[2] = read-out: Olaparib / %Ctrl @ 10000nM
[3] = read-out: Rucaparib / %Ctrl @ 10000nM, binding competition, % of control
[4] = read-out: Niraparib (MK-4827) / %Ctrl @ 10000nM

Cn1ncnc1[C@H]1c2n[nH]c(=O)c3cc(F)cc(c23)N[C@@H]1c1ccc(F)cc1 [Talazoparib]
percent of control binding at 10 µM (EPHB1; [1]): 94%
percent of control binding at 10 µM (ERK2; [1]): 100%
percent of control binding at 10 µM (ERK8; [1]): 88%
percent of control binding at 10 µM (PFTK1; [1]): 89%
percent of control binding at 10 µM (PRKD1; [1]): 100%

O=C(c1cc(Cc2n[nH]c(=O)c3ccccc23)ccc1F)N1CCN(C(=O)C2CC2)CC1 [Olaparib]
percent of control binding at 10 µM (EPHB1; [2]): 99%
percent of control binding at 10 µM (ERK2; [2]): 93%
percent of control binding at 10 µM (ERK8; [2]): 97%
percent of control binding at 10 µM (PFTK1; [2]): 100%
percent of control binding at 10 µM (PRKD1; [2]): 89%

CNCc1ccc(-c2[nH]c3cc(F)cc4c3c2CCNC4=O)cc1 [Rucaparib]
percent of control binding at 10 µM (EPHB1; [3]): 100%
percent of control binding at 10 µM (ERK2; [3]): 94%
percent of control binding at 10 µM (ERK8; [3]): 86%
percent of control binding at 10 µM (PFTK1; [3]): 86%
percent of control binding at 10 µM (PRKD1; [3]): 67%

NC(=O)c1cccc2cn(-c3ccc([C@@H]4CCCNC4)cc3)nc12 [Niraparib]
percent of control binding at 10 µM (EPHB1; [4]): 76%
percent of control binding at 10 µM (ERK2; [4]): 93%
percent of control binding at 10 µM (ERK8; [4]): 61%
percent of control binding at 10 µM (PFTK1; [4]): 88%
percent of control binding at 10 µM (PRKD1; [4]): 86%
